Assay results: patent publication US20220313698A1, “MODULATORS OF CYSTIC FIBROSIS TRANSMEMBRANE CONDUCTANCE REGULATOR” (Vertex Pharmaceuticals Incorporated, priority 2019, published 2022)

Experiments:
[1] = target: T1, CFTR-mediated chloride transport (Homo sapiens, UniProt P13569); test: Corrector Assay B - membrane potential dye assay (enteroid cells); conditions: for Corrector Assay B % activity: % of chloride transport of triple combination control (3 μM Compound A + 3 μM tezacaftor + 300 nM ivacaftor); for EC50: read-out: Corrector Assay B EC50, human intestinal enteroid cells, 18-24 h incubation, acute 10 μM forskolin + 300 nM ivacaftor;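 for all read-outs here: methyl oxonol membrane potential fluorescence followed over 15 min after switching to chloride-free buffer with forskolin, 100 µM IBMX and ivacaftor, in presence of CaCC blockers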
Protocol: Base medium (ADF+++) consisted of Advanced DMEM/Ham's F12, 2 mM Glutamax, 10 mM HEPES, 1 μg/ml penicillin/streptomycin.
Intestinal enteroid maintenance medium (IEMM) consisted of ADF+++, 1×B27 supplement, 1×N2 supplement, 1.25 mM N-acetyl cysteine, 10 mM Nicotinamide, 50 ng/mL hEGF, 10 nM Gastrin, 1 μg/mL hR-spondin-1, 100 ng/mL hNoggin, TGF-b type 1 inhibitor A-83-01, 100 μg/mL Primocin, 10 μM P38 MAPK inhibitor SB202190.
Bath 1 Buffer consisted of 1 mM MgCl2, 160 mM NaCl, 4.5 mM KCl, 10 mM HEPES, 10 mM Glucose, 2 mM CaCl2).
Chloride Free Buffer consisted of 1 mM Magnesium Gluconate, 2 mM Calcium Gluconate, 4.5 mM Potassium Gluconate, 160 mM Sodium Gluconate, 10 mM HEPES, 10 mM Glucose.
Bath 1 Dye Solution consisted of Bath 1 Buffer, 0.04% Pluronic F127, 20 μM Methyl Oxonol, 30 μM CaCCinh-A01, 30 μM Chicago Sky Blue.
Chloride Free Dye Solution consisted of Chloride Free Buffer, 0.04% Pluronic F127, 20 μM Methyl Oxonol, 30 μM CaCCinh-A01, 30 μM Chicago Sky Blue.
Chloride Free Dye Stimulation Solution consisted of Chloride Free Dye Solution, 10 μM forskolin, 100 μM IBMX, and 300 nM Ivacaftor.
Cells were recovered in cell recovery solution, collected by centrifugation at 650 rpm for 5 min at 4° C., resuspended in TryPLE and incubated for 5 min at 37° C. Cells were then collected by centrifugation at 650 rpm for 5 min at 4° C. and resuspended in IEMM containing 10 μM ROCK inhibitor (RI). The cell suspension was passed through a 40 μm cell strainer and resuspended at 1×10^6 cells/mL in IEMM containing 10 μM RI. Cells were seeded at 5000 cells/well into multi-well plates and incubated for overnight at 37° C., 95% humidity and 5% CO2 prior to assay.
Briefly, cells were washed 5 times in Bath 1 Buffer. Bath 1 Dye Solution was added and the cells were incubated for 25 min at room temperature. Following dye incubation, cells were washed 3 times in Chloride Free Dye Solution. Chloride transport was initiated by addition of Chloride Free Dye Stimulation Solution and the fluorescence signal was read for 15 min. The CFTR-mediated chloride transport for each condition was determined from the AUC of the fluorescence response to acute forskolin and 300 nM N-[2,4-bis(1,1-dimethylethyl)-5-hydroxyphenyl]-1,4-dihydro-4-oxoquinoline-3-carboxamide stimulation. Chloride transport was then expressed as a percentage of the chloride transport following treatment with 3 μM Compound A, 3 μM (R)-1-(2,2-difluorobenzo[d][1,3]dioxol-5-yl)-N-(1-(2,3-dihydroxypropyl)-6-fluoro-2-(1-hydroxy-2-methylpropan-2-yl)-1H-indol-5-yl)cyclopropanecarboxamide and 300 nM acute N-[2,4-bis(1,1-dimethylethyl)-5-hydroxyphenyl]-1,4-dihydro-4-oxoquinoline-3-carboxamide triple combination control (% Activity).

[2] = target: T1, CFTR-mediated chloride transport; test: Corrector Assay A - membrane potential dye assay (enteroid cells); conditions: for Corrector Assay A % activity: % of chloride transport of triple combination control (1 μM (14S)-dispiro macrocycle + 3 μM tezacaftor + 300 nM ivacaftor); for EC50: read-out: Corrector Assay A EC50, human intestinal enteroid cells, 18-24 h incubation, acute 10 μM forskolin + 300 nM ivacaftor

Structure (SMILES) | Corrector Assay B % activity [1] | EC50 [1] [nM] | Corrector Assay A % activity [2] | EC50 [2] [nM]
CC1(C)CC2CCC(c3ccccc3)Nc3cccc(n3)S(=O)(=O)NC(=O)c3ccc(-n4ccc(OCCC5(C(F)(F)F)CC5)n4)nc3N1C2 (single isomer, unassigned) [Compound 383, 12,12-Dimethyl-17-phenyl-8-(3-{2-[1-(trifluoromethyl)cyclopropyl]ethoxy}-1H-pyrazol-1-yl)-2λ^6-thia-3,9,11,18,23-pentaazatetracyclo[17.3.1.111,14.05,10]tetracosa-1(22),5,7,9,19(23),20-hexaene-2,2,4-trione] | +++ (+++ is >60%) | < 1000 | ++ (++ is 30-60%) | < 1000
CC1(C)CC2CCC(c3ccccc3)Nc3cccc(n3)S(=O)(=O)NC(=O)c3ccc(-n4ccc(OCCC5(C(F)(F)F)CC5)n4)nc3N1C2 (single isomer, unassigned) [Compound 384, 12,12-Dimethyl-17-phenyl-8-(3-{2-[1-(trifluoromethyl)cyclopropyl]ethoxy}-1H-pyrazol-1-yl)-2λ^6-thia-3,9,11,18,23-pentaazatetracyclo[17.3.1.111,14.05,10]tetracosa-1(22),5,7,9,19(23),20-hexaene-2,2,4-trione] | ++ (++ is 30-60%) |  | + (+ is <30%) | < 1000
CC1(C)CC2CN1c1nc(-n3ccc(OCCC4(C(F)(F)F)CC4)n3)ccc1C(=O)NS(=O)(=O)c1cccc(n1)NCCC2c1ccccc1 (single isomer, unassigned) [Compound 385, 12,12-dimethyl-15-phenyl-8-(3-{2-[1-(trifluoromethyl)cyclopropyl]ethoxy}-1H-pyrazol-1-yl)-2λ^6-thia-3,9,11,18,23-pentaazatetracyclo[17.3.1.111,14.05,10]tetracosa-1(22),5,7,9,19(23),20-hexaene-2,2,4-trione] | ++ (++ is 30-60%) | < 1000 | ++ (++ is 30-60%) | < 1000
CC1(C)CC2CCC(c3ccccc3)Nc3cccc(n3)S(=O)(=O)NC(=O)c3ccc(-n4ccc(OCCC5(C(F)(F)F)CC5)n4)nc3N1C2 (single isomer, unassigned) [Compound 387, 12,12-Dimethyl-17-phenyl-8-(3-{2-[1-(trifluoromethyl)cyclopropyl]ethoxy}-1H-pyrazol-1-yl)-2λ^6-thia-3,9,11,18,23-pentaazatetracyclo[17.3.1.111,14.05,10]tetracosa-1(22),5,7,9,19(23),20-hexaene-2,2,4-trione] | +++ (+++ is >60%) |  | +++ (+++ is >60%) | < 1000
CC1(C)CC2CC(c3ccccc3)CNc3cccc(n3)S(=O)(=O)NC(=O)c3ccc(-n4ccc(OCCC5(C(F)(F)F)CC5)n4)nc3N1C2 (single isomer, unassigned) [Compound 389, 12,12-dimethyl-16-phenyl-8-(3-{2-[1-(trifluoromethyl)cyclopropyl]ethoxy}-1H-pyrazol-1-yl)-2λ^6-thia-3,9,11,18,23-pentaazatetracyclo[17.3.1.111,14.05,10]tetracosa-1(22),5,7,9,19(23),20-hexaene-2,2,4-trione] | +++ (+++ is >60%) | < 1000 | +++ (+++ is >60%) | < 1000
